ChEMBL document CHEMBL1201862, “PubChem BioAssay data set” (2004)
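Five concentrations, 48 hours, 96-well plates. GI50 marks 50% less growth.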 Activity calls are given as the source filed them. Cut-off read from the data, not from the text of the source: active = GI50 up to about 1.1 µM and inactive = higher.

How the values were obtained:
Assay in all cases: NCI anticancer screen, dose series, 48 h
786-0 = test system: 786-0
A549 = test system: A549
ACHN = test system: ACHN
BT-549 = test system: BT-549
CCRF-CEM = test system: CCRF-CEM
COLO 205 = test system: COLO 205
DU-145 = test system: DU-145
EKVX = test system: EKVX
HCC 2998 = test system: HCC 2998
HCT-116 = test system: HCT-116
HCT-15 = test system: HCT-15
HL-60 = test system: HL-60
HOP-62 = test system: HOP-62
HOP-92 = test system: HOP-92
HT-29 = test system: HT-29
Hs-578T = test system: Hs-578T
IGROV-1 = test system: IGROV-1
K562 = test system: K562
KM12 = test system: KM12
M14 = test system: M14
MCF7 = test system: MCF7
MDA-MB-231 = test system: MDA-MB-231
MDA-MB-435 = test system: MDA-MB-435
MDA-N = test system: MDA-N
MOLT-4 = test system: MOLT-4
Malme-3M = test system: Malme-3M
NCI-H226 = test system: NCI-H226
NCI-H23 = test system: NCI-H23
NCI-H460 = test system: NCI-H460
NCI-H522 = test system: NCI-H522
NCI/ADR-RES = test system: NCI/ADR-RES
OVCAR-3 = test system: OVCAR-3
OVCAR-4 = test system: OVCAR-4
OVCAR-5 = test system: OVCAR-5
OVCAR-8 = test system: OVCAR-8
PC-3 = test system: PC-3
RPMI-8226 = test system: RPMI-8226
RXF 393 = test system: RXF 393
SF-268 = test system: SF-268
SF-295 = test system: SF-295
SF-539 = test system: SF-539
SK-MEL-28 = test system: SK-MEL-28
SK-MEL-5 = test system: SK-MEL-5
SK-OV-3 = test system: SK-OV-3
SN12C = test system: SN12C
SNB-19 = test system: SNB-19
SNB-75 = test system: SNB-75
SR = test system: SR
SW-620 = test system: SW-620
T47D = test system: T47D
TK-10 = test system: TK-10
U-251 = test system: U-251
UACC-257 = test system: UACC-257
UACC-62 = test system: UACC-62
CAKI-1 = test system: CAKI-1
LOX IMVI = test system: LOX IMVI
SK-MEL-2 = test system: SK-MEL-2
UO-31 = test system: UO-31

SMILES: Cc1nc2c(n1CCCl)C(=O)c1ccccc1C2=O
- GI50 (786-0): 52.2 µM (inactive)
- GI50 (A549): 33.7 µM (inactive)
- GI50 (ACHN): 28.9 µM (inactive)
- GI50 (BT-549): 20.1 µM (inactive)
- GI50 (CCRF-CEM): 22.6 µM (inactive)
- GI50 (COLO 205): 14 µM (inactive)
- GI50 (DU-145): 35.4 µM (inactive)
- GI50 (EKVX): 53.8 µM (inactive)
- GI50 (HCC 2998): 21.7 µM (inactive)
- GI50 (HCT-116): 16.1 µM (inactive)
- GI50 (HCT-15): 7.87 µM
- GI50 (HL-60): 16.3 µM (inactive)
- GI50 (HOP-62): 19.5 µM (inactive)
- GI50 (HOP-92): 29.2 µM (inactive)
- GI50 (HT-29): 15.8 µM (inactive)
- GI50 (Hs-578T): 20.1 µM (inactive)
- GI50 (IGROV-1): 11.6 µM (inactive)
- GI50 (K562): 16 µM (inactive)
- GI50 (KM12): 25.3 µM (inactive)
- GI50 (M14): 4.68 µM (inactive)
- GI50 (MCF7): 18.9 µM (inactive)
- GI50 (MDA-MB-231): 15.4 µM (inactive)
- GI50 (MDA-MB-435): 15.3 µM (inactive)
- GI50 (MDA-N): 18.7 µM (inactive)
- GI50 (MOLT-4): 12.9 µM (inactive)
- GI50 (Malme-3M): 5.82 µM (inactive)
- GI50 (NCI-H226): 18.7 µM (inactive)
- GI50 (NCI-H23): 29.9 µM (inactive)
- GI50 (NCI-H460): 14.9 µM (inactive)
- GI50 (NCI-H522): 16.7 µM (inactive)
- GI50 (NCI/ADR-RES): 16.2 µM (inactive)
- GI50 (OVCAR-3): 25.4 µM (inactive)
- GI50 (OVCAR-4): 14.8 µM (inactive)
- GI50 (OVCAR-5): 19 µM (inactive)
- GI50 (OVCAR-8): 17.9 µM (inactive)
- GI50 (PC-3): 8.43 µM (inactive)
- GI50 (RPMI-8226): 58.6 µM (inactive)
- GI50 (RXF 393): 19.5 µM (inactive)
- GI50 (SF-268): 22 µM (inactive)
- GI50 (SF-295): 21.4 µM (inactive)
- GI50 (SF-539): 31.4 µM (inactive)
- GI50 (SK-MEL-28): 42.8 µM (inactive)
- GI50 (SK-MEL-5): > 10 µM (inactive)
- GI50 (SK-OV-3): 5.22 µM (inactive)
- GI50 (SN12C): 30.3 µM (inactive)
- GI50 (SNB-19): 39.1 µM (inactive)
- GI50 (SNB-75): 14.5 µM (inactive)
- GI50 (SR): 28.8 µM (inactive)
- GI50 (SW-620): 23 µM (inactive)
- GI50 (T47D): > 10 µM (inactive)
- GI50 (TK-10): 26.7 µM (inactive)
- GI50 (U-251): 12.6 µM (inactive)
- GI50 (UACC-257): 14.1 µM (inactive)
- GI50 (UACC-62): 13 µM (inactive)

SMILES: CC1=[N+](C)CCN1C
- GI50 (786-0): > 100 µM (inactive)
- GI50 (A549): > 100 µM (inactive)
- GI50 (ACHN): > 100 µM (inactive)
- GI50 (BT-549): > 100 µM (inactive)
- GI50 (CAKI-1): > 100 µM (inactive)
- GI50 (CCRF-CEM): > 100 µM (inactive)
- GI50 (COLO 205): > 100 µM (inactive)
- GI50 (DU-145): > 100 µM (inactive)
- GI50 (EKVX): > 100 µM (inactive)
- GI50 (HCC 2998): > 100 µM (inactive)
- GI50 (HCT-116): > 100 µM (inactive)
- GI50 (HCT-15): > 100 µM
- GI50 (HL-60): > 100 µM (inactive)
- GI50 (HOP-62): > 100 µM (inactive)
- GI50 (HOP-92): > 100 µM (inactive)
- GI50 (HT-29): > 100 µM (inactive)
- GI50 (Hs-578T): > 100 µM (inactive)
- GI50 (IGROV-1): > 100 µM (inactive)
- GI50 (K562): > 100 µM (inactive)
- GI50 (KM12): > 100 µM (inactive)
- GI50 (LOX IMVI): > 100 µM (inactive)
- GI50 (M14): > 100 µM (inactive)
- GI50 (MCF7): > 100 µM (inactive)
- GI50 (MDA-MB-231): > 100 µM (inactive)
- GI50 (MDA-MB-435): > 100 µM (inactive)
- GI50 (MDA-N): > 100 µM (inactive)
- GI50 (MOLT-4): > 100 µM (inactive)
- GI50 (Malme-3M): > 100 µM (inactive)
- GI50 (NCI-H226): > 100 µM (inactive)
- GI50 (NCI-H23): > 100 µM (inactive)
- GI50 (NCI-H460): > 100 µM (inactive)
- GI50 (NCI-H522): > 100 µM (inactive)
- GI50 (NCI/ADR-RES): > 100 µM (inactive)
- GI50 (OVCAR-3): > 100 µM (inactive)
- GI50 (OVCAR-4): > 100 µM (inactive)
- GI50 (OVCAR-5): > 100 µM (inactive)
- GI50 (OVCAR-8): > 100 µM (inactive)
- GI50 (PC-3): > 100 µM (inactive)
- GI50 (RPMI-8226): > 100 µM (inactive)
- GI50 (RXF 393): > 100 µM (inactive)
- GI50 (SF-268): > 100 µM (inactive)
- GI50 (SF-295): > 100 µM (inactive)
- GI50 (SF-539): > 100 µM (inactive)
- GI50 (SK-MEL-28): > 100 µM (inactive)
- GI50 (SK-MEL-2): > 100 µM (inactive)
- GI50 (SK-MEL-5): > 100 µM (inactive)
- GI50 (SK-OV-3): > 100 µM (inactive)
- GI50 (SN12C): > 100 µM (inactive)
- GI50 (SNB-19): > 100 µM (inactive)
- GI50 (SNB-75): > 100 µM (inactive)
- GI50 (SR): > 100 µM (inactive)
- GI50 (SW-620): > 100 µM (inactive)
- GI50 (T47D): > 100 µM (inactive)
- GI50 (TK-10): > 100 µM (inactive)
- GI50 (U-251): > 100 µM (inactive)
- GI50 (UACC-257): > 100 µM (inactive)
- GI50 (UO-31): > 100 µM (inactive)
